Measured values: patent US9695481B2, “Polynucleotides comprising a reporter sequence operatively linked to a regulatory element” (UNIVERSITEIT LEIDEN, priority 2010, dated 2017)
Counter-ions that a name gives are not always drawn. Like-named read-outs stand apart in the source and are kept apart here.

How the values were obtained:
[1] = Genotoxicity profile; data extracted from Kirkland et al. 2008; cited from earlier work
[2] = system: Bscl2-GFP and Srxn1-GFP mES reporter cells
[3] = cited from earlier work
Salmonella = details: cited from earlier work
[4] = system: mouse ES cell lines containing a DsRed fluorescent reporter; details: cited from earlier work
[5] = Genotoxicity profile, data extracted from Kirkland et al. 2008
[6] = from which GFP reporter is induced

| Compound | In vitro genotoxicity [1] | Bscl2-GFP/Srxn1-GFP Prim. toxic properties [2] | In vivo genotoxicity [3, 5] | Ames test (Salmonella; [5]) | Bscl2-GFP/Srxn1-GFP GFP Induction [2] | Bscl2-GFP/Srxn1-GFP Prim. toxic properties [2, 6] | Ames test (Salmonella) | mES DsRed reporters [4] | In vivo genotoxicity ([3]; in vivo) | mES DsRed reporters ([4]; Hendriks et al. 2011) |
| --- | --- | --- | --- | --- | --- | --- | --- | --- | --- | --- |
| Oc1cccc(O)c1 [1,3-Dihydroxybenzene (Resorcinol), 1,3-Dihydroxybenzene] | Pos. | Equivocal | Neg. | Neg. | – | – | – | – | – | – |
| Bleomycin | Pos. | – | Pos. | Pos. | Pos. (considered positive when exposure to at least two different concentrations of a compound resulted in >1.5 fold induction of GFP expression) | Genotoxin | – | – | – | – |
| C[N+](C)(C)CCCl.[Cl-] [(2-chloroethyl)trimethyl-ammonium chloride] | – | – | – | – | Neg. | – | Neg. | Neg. | – | – |
| C=CC(=O)OCC [Ethyl acrylate] | – | – | – | – | Neg. | – | Neg. | – | Weak Pos. | Neg. |
| OCc1ccccc1 [Benzyl alcohol] | Weak Pos. | – | – | Neg. | Neg. | – | – | – | – | Neg. |
| CC[C@@]1(O)C(=O)OCc2c1cc1n(c2=O)Cc2cc3ccccc3nc2-1 [Camptothecin] | Pos. | – | Neg. | Neg. | Pos. (considered positive when exposure to at least two different concentrations of a compound resulted in >1.5 fold induction of GFP expression) | Genotoxin | – | – | – | – |
| NC(N)=O [Urea] | Pos. | – | – | Neg. | Neg. | – | – | – | – | Neg. |
| CCCCC(CC)COP(=O)(OCC(CC)CCCC)OCC(CC)CCCC (centres unmarked) [Tris(2-ethylhexyl)phosphate] | Neg. | – | Neg. | Neg. | Neg. | – | – | – | – | Neg. |
| Oc1ccc(Cl)cc1Cl [2,4-dichlorophenol] | – | Pro-oxidant | – | – | Pos. (key: Pos.: considered positive when exposure to at least two different concentrations of a compound resulted in >1.5 fold induction of GFP expression) | – | Neg. | – | Weak Pos. | Pos. |
| Nc1ccn([C@@H]2O[C@H](CO)[C@@H](O)[C@@H]2O)c(=O)n1 [Cytarabine] | – | Genotoxin | – | – | – | – | Neg. | – | – | – |
| CCc1cc(C(N)=S)ccn1 [Ethionamide] | Weak Pos. | – | – | Neg. | Neg. | – | – | – | – | Neg. |
| [H]/N=C(/N)N/C(=N/[H])NCCc1ccccc1 [Phenformin HCl] | – | – | – | – | Neg. | – | – | – | – | Neg. |
| OO [Hydrogen peroxide] | Pos. | Pro-oxidant | Neg. | Pos. | – | – | – | – | – | Neg. |
| Nc1ccc(Cl)cc1 [p-chloroaniline] | – | – | – | – | Neg. | – | Pos. | Neg. | Pos. | – |
| O=[N+]([O-])c1cc[n+]([O-])c2ccccc12 [4-Nitroquinelone-1-oxide] | Pos. | – | Pos. | – | Pos. (considered positive when exposure to at least two different concentrations of a compound resulted in >1.5 fold induction of GFP expression) | Genotoxin | – | – | – | – |
| COC(N)=O [Methyl carbamate] | Neg. | – | Neg. | – | – | – | – | – | – | – |
| CC[C@H]1OC(=O)[C@H](C)[C@@H](O[C@H]2C[C@@](C)(OC)[C@@H](O)[C@H](C)O2)[C@H](C)[C@@H](O[C@@H]2O[C@H](C)C[C@H](N(C)C)[C@H]2O)[C@](C)(O)C[C@@H](C)C(=O)[C@H](C)[C@@H](O)[C@]1(C)O [Erythromycin stearate] | – | – | – | Neg. | Neg. | – | – | – | – | – |
| C=C(C)[C@H]1CC=C(C)CC1 [D-limonene] | – | – | – | – | Neg. | – | – | – | – | Neg. |

| Compound | In vitro genotoxicity [1] | Bscl2-GFP/Srxn1-GFP Prim. toxic properties [2] | In vivo genotoxicity [3, 5] | Ames test (Salmonella; [5]) | Bscl2-GFP/Srxn1-GFP GFP Induction [2] | Bscl2-GFP/Srxn1-GFP Prim. toxic properties [2, 6] | Ames test (Salmonella) | mES DsRed reporters [4] | In vivo genotoxicity ([3]; in vivo) | mES DsRed reporters ([4]; Hendriks et al. 2011) |
| --- | --- | --- | --- | --- | --- | --- | --- | --- | --- | --- |
| OCCNCCO [Diethanolamine] | Neg. | – | Neg. | Neg. | Neg. | – | – | – | – | Neg. |
| O=C1CCCCC1 [Cyclohexanone] | Neg. | – | – | Neg. | Neg. | – | – | – | – | Neg. |
| CC(C)C=O [Isobutyraldehyde] | – | – | – | – | Neg. | – | – | Neg. | – | – |
| CN(C)C(=O)Nc1cccc(C(F)(F)F)c1 [Fluometron] | Neg. | – | – | Neg. | Neg. | – | – | – | – | Neg. |
| C=CCc1ccc(O)c(OC)c1 [Eugenol] | – | – | – | Neg. | Neg. | – | – | Neg. | Equivocal | – |
| Cc1noc(NS(=O)(=O)c2ccc(N)cc2)c1C [Sulfisoxazole] | – | Pro-oxidant | – | Neg. | Pos. (key: Pos.: considered positive when exposure to at least two different concentrations of a compound resulted in >1.5 fold induction of GFP expression) | – | – | – | – | Neg. |
| COc1cc(/C=C/C(=O)CC(=O)/C=C/c2ccc(O)c(OC)c2)ccc1O [Curcumln] | Pos. | – | – | Neg. | Neg. | – | – | – | – | Neg. |
| O=[N+]([O-])c1ccc(O)cc1 [p-Nitrophenol] | – | Pro-oxidant | – | – | Pos. (key: Pos.: considered positive when exposure to at least two different concentrations of a compound resulted in >1.5 fold induction of GFP expression) | – | – | Neg. | – | – |
| CC(C)(C)OO [Tert-butyl hydroperoxide] | – | – | – | – | Pos. (key: Pos.: considered positive when exposure to at least two different concentrations of a compound resulted in >1.5 fold induction of GFP expression) | – | – | Neg. | – | – |
| Nc1nc[nH]n1 [Amitrole] | Neg. | – | Neg. | Neg. | Neg. | – | – | – | – | Neg. |
| c1ccncc1 [Pyrldlne] | Neg. | – | Neg. | Neg. | Neg. | – | – | – | – | Neg. |
| ClC(Cl)(Cl)C(Cl)(Cl)Cl [Hexachloroethane] | Neg. | – | Neg. | Neg. | Neg. | – | – | – | – | Neg. |
| n-butyl chloride | – | – | – | – | – | – | – | Neg. | – | – |
| NC(=S)N(C1CCCCC1)C1CCCCC1 [N,N-dicyclohexyl thiourea] | Neg. | – | – | Neg. | Neg. | – | – | – | – | Neg. |
| CC(=O)O[C@H]1C(=O)[C@@]2(C)[C@H]([C@H](OC(=O)c3ccccc3)[C@]3(O)C[C@H](OC(=O)[C@H](O)[C@@H](NC(=O)c4ccccc4)c4ccccc4)C(C)=C1C3(C)C)[C@]1(OC(C)=O)CO[C@@H]1C[C@@H]2O [Taxol] | Pos. | Genotoxin | Pos. | Neg. | – | – | – | – | – | – |
| O=C1NS(=O)(=O)c2ccccc21.[Na] [Sodium saccharin] | – | – | – | – | Neg. | – | Neg. | Neg. | Neg. | – |
| CCCCCC(O)C=CC=O (centres unmarked) [4-Hydroxy-2-nonenal] | Pos. | Pro-oxidant | Neg. | Neg. | – | – | – | – | – | – |
| CN1CC[C@H](c2c(O)cc(O)c3c(=O)cc(-c4ccccc4Cl)oc23)[C@H](O)C1 [Flavopiridol] | – | – | – | – | Neg. | – | – | – | – | – |
